Experimental findings from US20040175352A1, “Microbicidal compositions including an ionene polymer and 2,4,4-trichloro-2-hydroxydiphenyl ether, and methods of using the same” (priority 2003, published 2004) are described below.

Each structure is given as a SMILES string. “And” between values parts separate entries of the source, which are not always exact repeats. Equal entries are not always repeated. Some results are limits rather than exact numbers.

Holding throughout (format): cell-based
One experiment relates to Trichoderma viride. The experiment can be described thus: Fungal evaluation, Trichoderma viride growth prevention (end point, Kull synergism). Particulars: lowest concentration completely preventing growth for seven days, mineral salts-glucose medium pH 6, 25° C. As to the method: Mineral salts-glucose medium was used. To prepare the medium, the following ingredients were added to 1 liter of deionized water: 0.7 g of KH2PO4; 0.7 g of MgSO4.7H2O; 1.0 g of HN4NO3; 0.005 g of NaCl; 0.002 g of FeSO4.7H20; 0.002 g ZnSO4.7H2O; 0.001 g of MnSO4.7H2O; 10 g of Glucose. The pH of the medium was adjusted to 6 with 1N NaOH. The medium was distributed in 5 ml amounts in test tubes and autoclaved at 121° C. for 20 minutes. The fungus, Trichoderma viride or Aspergillus niger, was grown on potato dextrose agar slant for 5 to 10 days and a spore suspension prepared by washing down the spores from the slant into a sterile saline solution. After addition of the biocides in the desired concentrations in the sterile mineral salts-glucose medium, the fungal spore suspension was added. The final spore concentration was approximately 10^6 cfu/ml. The inoculated media was incubated at 25° C. for 7 days.
(Busan® 77), poly[hydroxyethylene-(dimethyliminio)-2-hydroxypropylene(dimethyliminio)methylene dichloride] […]

For the next experiment, the system named is Pseudomonas aeruginosa. As to the kind of experiment: Bacterial evaluation, Pseudomonas aeruginosa growth prevention (end point, Kull synergism). As to the method:
(§1) Nutrient broth (2.5 g/liter of deionized water) was prepared. This was distributed in 5 ml amounts in test tubes and autoclaved at 121° C. for 20 minutes. After addition of the biocides in the desired concentrations to the nutrient broth, 100 microliters of a 24-hour grown suspension of Pseudomonas aeruginosa or Klebsiella pneumoniae cells of approximately 9.3×10^8 cfu/ml were added and incubated at 30° C. for 24 or 48 hours.
(§2) (Busan® 77), poly[hydroxyethylene-(dimethyliminio)-2-hydroxypropylene(dimethyliminio)methylene dichloride] (Busan® 1055 or APCA), or a cross-linked terpolymer of dimethylamine, epichlorohydrin and ethylenediamine (Busan® 1157), (designated component A), and triclosan (designated component B) in a series of tests in varying ratios and a range of concentrations against the fungi Trichoderma viride, and Aspergillus niger, the bacteria Pseudomonas aeruginosa and Klebsiella pneumoniae, and the alga Chlorella sp. using the methods described above.
(§3) End points for the various mixtures were then compared with the end points for the pure active ingredients alone in concomitantly prepared flasks or test tubes.
(§4) Qa=Concentration of compound A in parts per million, acting alone, which produced an end point.
(§5) Qb=Concentration of compound B in parts per million, acting alone, which produced an end point. […]

For the next experiment, the system named is Klebsiella pneumoniae. The experiment can be described thus: Bacterial evaluation, Klebsiella pneumoniae growth prevention (end point, Kull synergism). Particulars: lowest concentration completely preventing growth for 24 or 48 hours, nutrient broth, 30° C. As to the method: as §1, §2, §3, §4, §5
The test system of a further experiment is Chlorella sp. The experiment can be described thus: Algal evaluation, Chlorella sp. growth prevention (end point, Kull synergism). Conditions: lowest concentration completely preventing growth for three or four weeks, modified Allen's medium pH 7.8, 25° C., 180 ft-candle. As to the method:
The medium used for testing the effectiveness of the invention against algae was modified Allen's medium (see Allen, A. A., Simple conditions for growth of unicellular blue-green algae on plates, JOURNAL OF PHYCOLOGY. 4:1-4 […]). To make modified Allen's medium, the following six individual stock solutions in g/200 ml of deionized water were first prepared: 1.50 g of K2HPO4; 1.50 g of MgSO4.7H20; 0.80 g Na2CO3; 0.5 g CaCl2.2H2O; 1.16 g Na2SiO3.9H2O; 1.20 g citric acid. A micronutrient stock solution was also prepared by adding the following ingredients to 1 liter of deionized water: 0.75 g of Na2EDTA; 0.097 g FeCl3.6H2O; 0.041 g of MnCl2.4H2O; 0.005 g ZnCl2; 0.002 g CoCl2.6H2O; 0.004 g Na2MoO4.2H2O. To make the final modified Allen's medium, the following ingredients and the stock solutions, prepared from above, were combined in a flask and then made up to 1 liter with deionized water: 1.5 g NaNO3; 5 ml K2HPO4; 5 ml MgSO4.7H2O; 5 ml Na2CO3; 10 ml CaCl2.2H2O; 10 ml Na2SiO3.9H2O; 1 ml citric acid; and 1 ml micronutrient stock solution. The pH was adjusted to 7.8. Then the medium was dispensed in 5 ml amounts in test tubes and autoclaved at 121° C. for 20 minutes. After autoclaving, the biocides were added to the medium in the desired concentrations. […]

Regarding `Oc1cc(Cl)ccc1Oc1ccc(Cl)cc1Cl` [Triclosan, 2,4,4′-tricloro-2′-hydroxydiphenyl ether], the “Ob, quantity producing end point: concentration of component B (triclosan) acting alone” value is 25 ppm in the experiment with Trichoderma viride; over 500 ppm in the experiment on Pseudomonas aeruginosa (Pseudomonas aeruginosa, lowest concentration completely preventing growth for 24 or 48 hours, nutrient broth, 30° C.); 0.5 ppm in the experiment on Klebsiella pneumoniae; 0.5 ppm and 0.6 ppm in the experiment with Chlorella sp.. In the experiment with Pseudomonas aeruginosa (Pseudomonas sp., component used individually), the “effectiveness against Pseudomonas sp. when used individually” value is “ineffective”.
